Experimental data published in PubChem BioAssay AID624265 (Broad Institute, 2012).
The source made the active and inactive calls.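 How the source made its calls: active means at a dose no more than twice the top valid tested dose, the fitted curve drops below -35% activity change; inactive means the rest, rising-direction activity included.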

Experiment: cytotoxicity in NIH3T3 fibroblasts, dose response, cytotoxicity control for HSP40 inhibitor project, cell-based, CellTiter-Glo luminescence, cherry-pick, set 2 (AID 624265);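 further: cells exposed to compound for 48 hours before the ATP read; 0% = median neutral control signal and -100% = no luminescence left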
Conditions: NIH3T3 viability, CellTiter-Glo ATP luminescence; at 5.6 µM (top of the series)

SMILES | activity change, negative = toxicity
CC(C)C(=O)NC(c1cccc([N+](=O)[O-])c1)c1ccc2cccnc2c1O (configuration not stated) | -21% (inactive)

Same assay, conditions: NIH3T3 viability, CellTiter-Glo ATP luminescence; at 50 µM (top of the series)

SMILES | activity change, negative = toxicity
O=C(Nc1cc(Oc2ccc(Cl)cc2)cc([N+](=O)[O-])c1)c1ccco1 | -2.9% (inactive)
Cc1cccc(N2CCN(C(=O)C3COc4ccccc4O3)CC2)c1C (configuration not stated) | -5.05% (inactive)
O=C(NCCC1=CCCCC1)c1c(O)nc2sccn2c1=O | 15.1% (inactive)
Cc1ccc(C)c(/C=C/C(=O)c2ccccc(=O)c2O)c1 | -4.58% (inactive)
CCCCCCC(Cl)(Cn1ccnc1)c1ccccc1 (configuration not stated) | 16% (inactive)
COc1cc([N+](=O)[O-])cc(/C=N/NC(=O)c2cncc(Br)c2)c1O | -13.4% (inactive)
O/N=C/c1ccccc1OCc1ccc(Cl)cc1 | 18.4% (inactive)
COc1cnc(-c2ccccn2)nc1Oc1ccc(C(C)(C)C)cc1 | 23.5% (inactive)
CC12CCC(O)CC1=CCC1C2CCC2(C)C3=NN=CC3CC12 (configuration not stated) | 6.4% (inactive)
Cn1nc(C(F)(F)F)c(C#N)c1N1CCN(c2ccc(F)cc2)CC1 | 21.3% (inactive)
Clc1ccc(C(Cn2ccnc2)OCc2c(Cl)cccc2Cl)c(Cl)c1 (configuration not stated) | 0.224% (inactive)
Cc1ccc(-n2nnnc2SCC(=O)N2CCc3ccccc3C2)c(C)c1 | 3.85% (inactive)
COc1cccc(C(C)=C2SC(=S)NC2=O)c1 | 1.04% (inactive)
O=C(Nc1nnc(-c2ccccc2)o1)c1ccc(Cl)cc1 | 29.9% (inactive)
O=C(COc1ccccc1F)Nc1nc(-c2ccccn2)cs1 | -8.96% (inactive)
CCCn1c2ccccc2c2cc(C(=O)O)ccc21 | -3.19% (inactive)
O=C(Nc1ccc(Cl)cc1C(=O)Nc1ccc(Br)cn1)c1ccco1 | -5.93% (inactive)
O=C1c2ccccc2-n2c1nc1ccccc1c2=O | -25.8% (inactive)
O=c1c2ccccc2c(-c2ccc(O)cc2)nn1-c1cccc(C(F)(F)F)c1 | -18.6% (inactive)
O=C(Nc1nnc(SCc2ccc(F)cc2)s1)c1ccccn1 | 5.25% (inactive)
O=C(NCc1ccncc1)c1ccccc1Nc1ccc(SC(F)F)cc1 | 3.29% (inactive)
CCOC(=O)N1C(=O)C2(CCCCC2)N(c2ccccc2Cl)C1=S | -8.13% (inactive)
Cc1cccc(Oc2nc(-c3ccccn3)nc3ccccc23)c1 | 18.9% (inactive)

SMILES | activity change, negative = toxicity
CCCSC(=S)c1c(C)[nH]n(-c2ccccc2)c1=O | -14.1% (inactive)
CCCCCCCn1c(=O)c(C(=O)OC)c(N)c2ccccc21 | -3.81% (inactive)
O=C(O)c1ccccc1NC(c1ccccc1)c1ccc2cccnc2c1O (configuration not stated) | -15.4% (inactive)
COc1ccc(N(C(=O)c2ccncc2)S(=O)(=O)c2ccc(F)cc2)cc1 | 0.026% (inactive)
O=C(NC(=S)N(CCc1ccccc1)CCc1ccccc1)c1ccco1 | 20.1% (inactive)
O=C(CSc1ccc(-c2ccccn2)nn1)c1ccccc1 | -10.1% (inactive)
O=C(NCC1CC1(Cl)Cl)Nc1ccc(Cl)c(Cl)c1 (configuration not stated) | 17.4% (inactive)
Cc1ccc(NC2(c3nnnn3-c3c(C)cccc3C)CCCCC2)cc1 | 0.981% (inactive)
COC(=O)C1=NN(C(=O)c2cccc(Br)c2)C(O)(c2ccc(Cl)cc2)C1 (configuration not stated) | -0.434% (inactive)
CCCCn1c(=O)c(C(=O)NCc2ccncc2)c(O)c2ccccc21 | 25% (inactive)
CCCCCCCc1ccc(-c2ccc(O)cc2)nc1 | 25.5% (inactive)
CC1Oc2ccccc2C=C1/C=N/Nc1ccc(C(=O)O)cc1 (configuration not stated) | 1.68% (inactive)
CC(=O)C1=C(c2cccc([N+](=O)[O-])c2)N(C(C)=O)n2c(C)nnc2S1 | 4.36% (inactive)
O=C(CCCSc1ccccc1)Nc1nc(-c2ccccn2)cs1 | -1.21% (inactive)
Cc1ccccc1Oc1nc(-c2ccccn2)nc2ccccc12 | 6.99% (inactive)
CC(NC(=S)NC1CCC(C(C)(C)C)CC1)c1ccccc1 (configuration not stated) | 3.27% (inactive)
CC12CC3(C)CC(C)(C1)CC(NC(=O)N1CCCC1)(C2)C3 | 17.5% (inactive)
O=P(Nc1cccnc1)(Oc1ccccc1Cl)Oc1ccccc1Cl | -1.87% (inactive)
Cc1ccc(Sc2ccc(NC(=O)CCl)cc2)cc1C | 2.95% (inactive)
Clc1nc(-c2ccccn2)nc2scc(-c3ccccc3)c12 | 5.16% (inactive)
Cc1c(C2(O)CCCCC2)[nH]c2ccc(C(F)(F)F)cc12 | -6.56% (inactive)
CNc1cc(CSC)nc(SCc2ccc(Cl)cc2Cl)n1 | 18.6% (inactive)
Cc1ccc(O)c(C2=NNC(c3ccc(Cl)cc3)C2)c1 (configuration not stated) | 0.122% (inactive)

SMILES | activity change, negative = toxicity
CCc1ccc(S(=O)(=O)N(C(=O)c2ccncc2)c2ccc(OC(=O)c3ccncc3)cc2)cc1 | 12.1% (inactive)
CC(=O)NC(c1cccc([N+](=O)[O-])c1)c1ccc2cccnc2c1O (configuration not stated) | -27.2% (inactive)
Cc1cccc(C)c1N1C(=O)C2ON(c3ccccc3)C(c3ccncc3)C2C1=O (configuration not stated) | 15.5% (inactive)
CCCCCCSc1ccc(-c2nc3ccccn3c2NCCCC)cc1 | 14% (inactive)
CCCS(=O)(=O)c1c(S(=O)(=O)CCC)c2c(C)cccn2c1C(=O)N/N=C/c1cc(O)cc(O)c1 | -15.8% (inactive)
O=[N+]([O-])c1ccc2c(OCc3nnc(-c4ccccc4Br)o3)ncnc2c1 | -6.18% (inactive)
O=S1OC(c2ccccc2)c2cc(Cl)ccc21 (configuration not stated) | 8.75% (inactive)
CCn1c(CNc2ccc(Cl)cc2)nnc1SCc1ccccc1 | -7.39% (inactive)
CCCC1CCC(c2ccc(/C(N)=N/O)cc2)CC1 (configuration not stated) | -4% (inactive)
O=C(CC1CC2CCC1C2)Nc1nc(-c2ccccn2)cs1 (configuration not stated) | 10.2% (inactive)
S=C(Nc1ccc(Oc2ccccc2)cc1)NC1CCCCCC1 | 12.1% (inactive)
CCCc1cc(C(N)=O)c(NC(=O)c2cc(C)on2)s1 | 12.3% (inactive)
Clc1ccc(-c2n[nH]c3c2CCC3)cc1Cl | 1.25% (inactive)
O=C(CSc1ccc(-c2ccccn2)nn1)NCc1ccc(F)cc1 | -2.59% (inactive)
Cc1csc(NC(=O)C(C)Oc2ccc(Cl)cc2C)n1 (configuration not stated) | 8.91% (inactive)
Cc1ccsc1/C=C/c1ccc2cccc(O)c2n1 | -8.21% (inactive)
CCCCC(=O)NC(c1ccco1)c1cc(Cl)c2cccnc2c1O (configuration not stated) | -22.9% (inactive)
Oc1c(CN2CCCC2)cc(COCc2ccccc2)c2cccnc12 | -2.61% (inactive)
c1ccc(-c2ccc(SCc3cccnc3)nn2)nc1 | -5.74% (inactive)
Nc1nc(-c2ccc(Oc3ccccc3)cc2)cs1 | 6.84% (inactive)
Nc1nc2sc3c(c2c(=O)s1)CCCC3 | 13.7% (inactive)
C=CCNC(=S)N1CCC(Cc2ccccc2)CC1 | 7.32% (inactive)
COc1ccc2oc(=O)c(-c3csc(Nc4cccc(O)c4)n3)cc2c1 | 4.36% (inactive)

SMILES | activity change, negative = toxicity
CC1(C)CC(=O)C(N=Nc2ccc3ncsc3c2)=C(O)C1 | 3.01% (inactive)
O=[N+]([O-])c1cccc(C=NNc2ccc3ccccc3n2)c1O | -29.6% (inactive)
O/N=C(\c1ccc(Cl)cc1Cl)c1ncc(C(F)(F)F)cc1Cl | -0.787% (inactive)
CC1CCN(c2ccc3c(c2)S(=O)(=O)c2ccccc2C3=O)CC1 | -1.31% (inactive)
COc1ccc(O)c(C(=O)CC(=O)c2ccccc2C)c1 | 0.039% (inactive)
CCCCC(CC)c1nnc(NC(=O)c2cccs2)s1 (configuration not stated) | -1.51% (inactive)
COc1cc2c(c(OC)c1OC)-c1ccc(O)c(=O)cc1[C@@H](NC(C)=O)CC2 | 4.18% (inactive)
C=CCOC(Cn1ccnc1)c1ccc(Cl)cc1Cl (configuration not stated) | 9.44% (inactive)
Cc1cc(C(=O)COC(=O)Cc2n[nH]c(=O)c3ccccc23)c(C)n1-c1cccc(C(F)(F)F)c1 | 24.5% (inactive)
O=C1N(c2ccc(Cl)cc2)C(c2cccnc2)N2CCCN12 (configuration not stated) | 17.3% (inactive)
CC1(C)C2CCC1(C)C(OC(=O)c1ccc(O)cc1)C2 (configuration not stated) | -0.777% (inactive)
CC1(C)C=Cc2c(ccc3c2OC[C@@H](c2ccc(O)cc2O)C3)O1 | 16.2% (inactive)
O=c1cc(CSc2ccc(Cl)cc2)nc(-c2ccccn2)[nH]1 | 20.7% (inactive)
CCN(CC)C(=O)CSc1ncnc2sc(-c3ccccc3)cc12 | 9.41% (inactive)
O=C(N/N=C/c1cc(Cl)cc([N+](=O)[O-])c1O)c1ccccc1NS(=O)(=O)c1cccs1 | 2.81% (inactive)
S=C(NCc1ccco1)Nc1ccc(Oc2ccc(Cl)cc2)cc1 | 10.2% (inactive)
c1ccc(C(=NNc2nc3ccccc3s2)c2ccccn2)cc1 | 11.9% (inactive)
Cc1cc(Nc2ccccc2)nn1C(=O)c1ccccc1 | 10% (inactive)
Cc1ccccc1C(=O)NNC(=S)NC(=O)c1ccc(Cl)cc1Cl | -5.68% (inactive)
CC(=O)NC(c1ccc(C)cc1)c1cc([N+](=O)[O-])c2cccnc2c1O (configuration not stated) | -0.602% (inactive)
C=CCNc1nc(-c2ccccn2)nnc1-c1ccccc1 | -23.8% (inactive)
C=C(C)COc1ccc(-c2[nH]ncc2-c2ccccc2)c(O)c1 | -16.4% (inactive)
